Common to all, as to format: cell-based
One assay deals with MRC-5 cell line. As to the kind of experiment: Cell viability assay for MRC-5 cell line (EZ-Cytox). The conditions noted are these: Homo sapiens, MRC5, 120 h, read-out: Activity: IC50 value of Exemplary Compound to MRC-5 cell line. Here is the method:
4. Cell Viability Assay for MRC-5 Cell Line
(1) Culture of MRC-5 Cell Line
Passage of cultured cells was maintained within P15.
(2) Treatment of Compounds of the Present Invention
Then, it was cultured in 37° C.
(3) Cytotoxicity Experiment
CO2 incubator for 4 hours.

In a further assay the target is T1, PLK1 (Homo sapiens, UniProt P53350).
T1 construct: endogenous in cells; host or cells: HeLa LgBit (Plk1-HiBit KI): HeLa stably expressing LgBit, with a CRISPR/Cas9 knock-in of HiBit at the endogenous PLK1 locus
T1 sequence (P53350 whole entry): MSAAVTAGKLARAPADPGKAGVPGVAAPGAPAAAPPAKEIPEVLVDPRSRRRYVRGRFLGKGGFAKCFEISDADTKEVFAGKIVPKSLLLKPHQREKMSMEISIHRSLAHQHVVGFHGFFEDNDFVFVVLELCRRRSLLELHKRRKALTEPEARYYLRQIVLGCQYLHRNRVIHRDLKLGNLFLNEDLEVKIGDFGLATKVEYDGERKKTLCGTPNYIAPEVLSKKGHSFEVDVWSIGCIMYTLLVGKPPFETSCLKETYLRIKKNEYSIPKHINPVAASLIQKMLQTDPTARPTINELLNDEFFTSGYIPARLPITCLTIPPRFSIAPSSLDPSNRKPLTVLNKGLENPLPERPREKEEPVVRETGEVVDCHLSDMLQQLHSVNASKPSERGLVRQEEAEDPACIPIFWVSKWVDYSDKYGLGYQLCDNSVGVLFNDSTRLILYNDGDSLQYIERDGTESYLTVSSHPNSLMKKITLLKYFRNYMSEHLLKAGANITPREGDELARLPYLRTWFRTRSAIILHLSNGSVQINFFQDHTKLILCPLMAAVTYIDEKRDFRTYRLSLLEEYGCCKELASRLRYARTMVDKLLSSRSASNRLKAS
As to the kind of experiment: Luciferase assay for PLK1 in HeLa LgBit (Plk1-HiBit KI) cell line. The conditions noted are these: 300 nM compound, luminescence after 9 hours. The method, boiled down:
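HeLa cells stably expressing LgBit, with HiBit knocked in at the C-terminus of endogenous Plk1, released from a 24 h 2 mM thymidine block and grown 18 h. Endurazine added, then compound at 300 nM; luminescence tracked in real time, expressed as ratio to DMSO.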

The test system of another assay is NCI-H526 cell line. As to the kind of experiment: Cell viability assay for H526 cell (EZ-Cytox). The conditions noted are these: Homo sapiens, NCI-H526, 120 h; H526 cells, 5 days, 3000 nM to 0.46 nM. A digest of the protocol: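 NCI-H526 cells were exposed to compound in CO2 incubator culture for 5 days. Viability was read by EZ-Cytox absorbance at 450 nm after 3 min shaking, giving IC50 values.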

The structures appear in SMILES notation.

On to `COc1cc(C(=O)NC2CCCN(CCCN3CCN(c4cccc5c4C(=O)N(C4CCC(=O)NC4=O)C5=O)CC3)C2)ccc1Nc1ncc2c(n1)N(C1CCCC1)CC(F)(F)C(=O)N2C` (stereo not drawn) [Compound 144, 4-((9-cyclopentyl-7,7-difluoro-5-methyl-6-oxo-6,7,8,9-tetrahydro-5H-pyrimido[4,5-b][1,4]diazepin-2-yl)amino)-N-(1-(3-(4-(2-(2,6-dioxopiperidin-3-yl)-1,3-dioxoisoindolin-4-yl)piperazin-1-yl)propyl)piperidin-3-yl)-3-methoxybenzamide], for which the 50% inhibitory concentration (IC50) in the assay on MRC-5 cell line was 4.08 µM; in the assay with NCI-H526 cell line, less than 0.05 µM. At PLK1, the “Activity: ratio of the luminescense value of each Exemplary Compound treatment group to DMSO treatment group” value was “++ (++<0.6)”.

(Values after patent US20250114460A1, “NOVEL PLK1 DEGRADATION INDUCING COMPOUND” (UPPTHERA, INC., priority 2021, published 2025).)
